According to EP0393529A1, “5,11-dihydro-6H-dipyrido [3,2-b:2',3'-e][1,4]diazepin-6-ones and their use in the prevention or treatment of AIDS” (Boehringer Ingelheim Pharmaceuticals Inc., priority 1989, dated 1990):
Read-outs that look alike come from different tables or passages of the source.

Tests used:
[1] = molecular target: T1, HIV-1 reverse transcriptase (Human immunodeficiency virus type 1 group M subtype B, UniProt P03367); assay: Reverse Transcriptase (RT) Assay (RNA-dependent DNA polymerase activity, cell-free, 3H-dGTP incorporation); type: biochemical; conditions: read-out: RT Inhibition % @ 10µg/ml
T1 construct: Reverse transcriptase enzyme from the LAV strain; made in house; host or cells: E. coli strain JM109, clone pBRTprt1+ in vector pIBI21 (lac promoter)
Experimental: After removal of the insoluble debris by centrifugation, the protein is precipitated by the addition of 3 volumes of saturated aqueous ammonium sulfate.
The 2X concentrated stock reaction mixture is aliquoted and stored at -20°C. […] This enzyme assay has been adapted to a 96 well microtiter plate system, and has been previously described (6). […] Twenty µl of 0.12-0.5M EDTA are added to the first three wells of the microtiter plate.
This group serves as background polymerization which is subtracted from all other groups. Twenty-five µl of the 2X reaction mixture are added to all wells and the assay is allowed to incubate at room temperature for 60 minutes. […] The microtiter plate is incubated for 15 minutes at 4°C and the precipitate is fixed onto #30 glass fiber paper (Schleicher & Schuell) using a Skatron semi-automatic harvester. […] Each vial receives 2 mls of scintillation cocktail and is counted in a Beckman beta counter.

[2] = system: HTLV-IIIB strain of HIV-1; assay: Human T-Cell Culture Assay (syncytia formation in C8166 cells); type: cell-based; conditions: Human immunodeficiency virus 1, IIIB, 96 h, syncytia read four days after virus challenge, read-out: T-Cell Culture Assay(IC₅₀)
Experimental: In order to confirm that compounds which are active in the RT Assay also have the ability to inhibit HIV replication in a living system, compounds according to the invention were also tested in the human T-Cell Culture Assay described below.
Assay Theory: Formation of syncytia is a feature of in vitro cultures of CD4+ T-cells infected with HIV-1. In this assay, T-cells are treated with a putative replication inhibiting compound and then infected with HIV-1. After incubation the culture is checked for the formation of syncytia. The absence or reduction is the number of syncytia is used as a measure of the test compound's ability to inhibit HIV replication.
Assay Method: The target cells, designated C8166, are a subclone of human lymphoma cells of T-cell origin and are established at an initial density of 5x10⁴ per 100 ul in RPMI 1640 (+ 10% fetal bovine serum) culture medium in 96 well flat bottom plates. A selected amount of test compound, dissolved in DMSO is included. After 24 hours, 50-100 TCID50's (the dose that results in induced effect in 50% of test cultures) of the HTLV-IIIB strain of HIV-1 (2) are innoculated into each culture. Control cultures receive compound or virus only. […] The percent inhibition by the test compound is determined by comparison with control values. […]

| Structure (SMILES) | inhibition at 10 µg/mL ([1]; 10µg/ml compound) | IC50 [2] | inhibition at 10 µg/mL [1] |
| --- | --- | --- | --- |
| CCCN1c2ncccc2NC(=O)c2cccnc21 [Example 2, 5,11-Dihydro-11-propyl-6H-dipyrido[3,2-b:2′,3′-e][1,4]diazepin-6-one] | 94% | – | – |
| CCCN1c2ncccc2C(=O)N(C)c2cccnc21 [Example 3, 5,11-Dihydro-5-methyl-11-propyl-6H-dipyrido[3,2-b:2′,3′-e][1,4]diazepin-6-one] | 94% | – | – |
| CCN1C(=O)c2cccnc2N(CC)c2ncccc21 [Example 4, 5,11-Diethyl-5,11-dihydro-6H-dipyrido[3,2-b:2′,3′-e][1,4]diazepin-6-one] | 98% | 190 µM | – |
| CCN1c2ncccc2C(=O)N(C)c2cccnc21 [Example 8, 5,11-Dihydro-11-ethyl-5-methyl-6H-dipyrido[3,2-b:2′,3′-e][1,4]diazepin-6-one] | – | – | 100% |
